Test results: patent US20240270744A1 (Hoffmann-La Roche Inc., priority 2021, published 2024)
pKi: −log10 of the molar value.

Columns and labels:
[1] = biological target: human GABAA α1β3γ2 receptor (Homo sapiens (Human), UniProt P14867+P18507); assay: Radioligand binding assay, competition for [3H]Flumazenil, γ2-containing GABAA subtypes; details: Table 1; [3H]Flumazenil displacement, HEK293F cells, mean of two determinations; read-out: Ki h-GABAA α1β3γ2
Method: The affinity of compounds at GABAA γ2 subunit-containing receptors was measured by competition for [^3H]Flumazenil (81.1 Ci/mmol; Roche) binding to HEK293F cells expressing human (transiently transfected) receptors of composition α1β3γ2.
Harvested pellets from HEK293F cells expressing the different GABAA γ2 receptor subtypes were resuspended in Mannitol Buffer pH 7.2-7.4 and processed as described above for the cells expressing the GABAA γ1 subunit-containing receptors.
Assays were incubated to equilibrium for 1 hour at 4° C. and harvested onto GF/C uni-filters (Packard) by filtration using a Packard harvester and washing with ice-cold wash buffer (50 mM Tris; pH 7.5). After anhydrousing, filter-retained radioactivity was detected by liquid scintillation counting. Ki values were calculated using Excel-Fit (Microsoft) and are the means of two determinations.

[2] = biological target: human GABAA α2β2γ1 receptor (Homo sapiens (Human), UniProt P47869+Q8N1C3); assay: Radioligand binding assay, competition for [3H]RO7239181, γ1-containing GABAA subtypes; details: for pKi: [3H]RO7239181 displacement; for γ2/γ1 Selectivity Ratio / LogSel: Table 1; for γ2/γ1 Selectivity Ratio: Ki α1β3γ2 (nM)/Ki α2β2γ1 (nM); for LogSel: Log of the γ2/γ1 Ki ratio
Method: (§1) The affinity of compounds at GABAA γ1 subunit-containing receptors was measured by competition for [^3H]RO7239181 (67.3 Ci/mmol; Roche) binding to membranes from HEK293F cells (ThermoFisher R79007) expressing human (transiently transfected) receptors of composition α5β2γ1, α2β2γ1, α1β2γ1.
(§2) Harvested pellets from HEK293F cells expressing the different GABAA receptor subtypes were resuspended in Mannitol Buffer pH 7.2-7.4 (Mannitol 0.29 M, Triethylamine 10 mM, Acetic acid 10 mM, EDTA 1 mM plus protease inhibitors (20 tablets Complete, Roche Diagnostics Cat. No. 05 056 489 001 per liter)), washed two times and then resuspended at 1:10 to 1:15 dilution in the same buffer. Cell disruption was performed by stirring the suspension in a Parr vessel #4637 at 435 psi for 15 minutes, and then the suspensions were centrifuged at 1000×g for 15 minutes at 4° C. (Beckman Avanti J-HC: rotor JS-4.2). The supernatant (S1) was transferred in a 21 Schott flask and the pellet (P1) was resuspended with Mannitol Buffer up to 175 ml. The resuspended pellet was transferred into a 250 ml Corning centrifugal beaker and centrifuged at 1500×g for 10 minutes at 4° C. (Beckman Avanti J-HC: rotor JS-4.2). The supernatant (S1) was then transferred in the 21 Schott flask and the pellet was discarded. The supernatants (S1) were centrifuged in 500 ml Beckman polypropylene centrifugal beaker at 15′000×g for 30 minutes at 4° C. (Beckman Avanti J-20 XP; rotor JLA-10.500). The pellet (P2) was resuspended with Mannitol Buffer 1:1 and frozen at −80° C. The supernatant (S2) was centrifuged in 100 ml Beckman polypropylene centrifugal tubes at 48000×g for 50 minutes at 4° C. (Beckman Avanti J-20 XP; rotor JA-18). The supernatant (S3) was discarded and the pellet (P3) was resuspended with 1:1 Mannitol Buffer. The P2 and P3 protein concentration was determined with the BIORAD Standard assay method with bovine serum albumin as standard and measured on the NANO-Drop 1000. The membrane suspension was aliquots (500 μl per tube) and stored at −80° C. until required.
(§3) Membrane homogenates were resuspended and polytronised (Polytron PT1200E Kinematica AG) in Potassium Phosphate 10 mM, KCl 100 mM binding buffer at pH 7.4 to a final assay concentration determined with a previous experiment.
(§4) Assays were incubated to equilibrium for 1 hour at 4° C. and then, membranes were filtered onto unifilter (96-well white microplate with bonded GF/C filters preincubated 20-50 minutes in 0.3% Polyethylenimine) with a Filtermate 196 harvester (Packard BioScience) and washed 4 times with cold Potassium Phosphate 10 mM pH 7.4, KCl 100 mM binding buffer. After anhydrousing, filter-retained radioactivity was detected by liquid scintillation counting. Ki values were calculated using Excel-Fit (Microsoft) and are the means of two determinations.

[3] = biological target: human GABAA α5β2γ1 receptor (Homo sapiens (Human), UniProt P31644+Q8N1C3); assay: as above; details: Table 1; [3H]RO7239181 displacement, membranes from HEK293F cells, mean of two determinations
Method: as §1, with “α1β2γ1. For better protein expression of the α2 subunit-containing receptors, the 28 amino acid long signal peptide (Met1 to Ala28) of the human GABAA α2 subunit was substituted by the 31 amino acid long signal peptide (Met1 to Ser31) of human GABAA α5 subunit.” for “α1β2γ1.”
as §2, §3
as §4, with “Radioligand binding assays were carried out in a volume of 200 μL (96-well plates) which contained 100 μL of cell membranes, [3H]RO7239181 at a concentration of 1.5 nM (α5β2γ1) or 20-30 nM (α1β2γ1, α2β2γ1) and the test compound in the range of [0.3-10000]=10^−9 M. Nonspecific binding was defined by 10×10^−6 (α5β2γ1) and 30×10^−6 M RO7239181 and typically represented less than 5% (α5β2γ1) and less than 20% (β1β2γ1, α2β2γ1) of the total binding. Assays” for “Assays”
Representative test results, obtained by the above described assay measuring binding affinity to HEK293 cells expressing human (h) receptors, are shown in the Table 1.

[4] = Ki h-GABAA α2β2γ1, Table 1, membranes from HEK293F cells, mean of two determinations

Row | SMILES | pKi [1] | pKi [2, 4] | pKi ([2]; Ki h-GABAA α2β2γ1, Table 2) | γ2/γ1 Selectivity Ratio [2] | LogSel [2] | pKi [3]
1 | C[C@@H]1N=C(c2c(F)cccc2F)c2c(cnc(C(F)(F)F)c2Cl)-n2nc(C(=O)N3CCS(=O)(=O)CC3)nc21 [Example 11, [(7S)-11-chloro-9-(2,6-difluorophenyl)-7-methyl-12-(trifluoromethyl)-2,3,5,8,13-pentazatricyclo[8.4.0.02,6]tetradeca-1(10),3,5,8,11,13-hexaen-4-yl]-(1,1-dioxo-1,4-thiazinan-4-yl)methanone] | 5.10 | 8.02 | 8.02 | 818 | 2.91 | 8.34
2 | C[C@@H]1N=C(c2c(F)cccc2F)c2c(cnc(C(F)(F)F)c2Cl)-n2nc(NC(=O)C3COC3)nc21 [Example 12, N-[(7S)-11-chloro-9-(2,6-difluorophenyl)-7-methyl-12-(trifluoromethyl)-2,3,5,8,13-pentazatricyclo[8.4.0.02,6]tetradeca-1(10),3,5,8,11,13-hexaen-4-yl]oxetane-3-carboxamide] | 4.91 | 7.16 | 7.16 | 178 | 2.25 | 8.28
3 | C[C@@H]1N=C(c2c(F)cccc2F)c2c(cnc(C(F)(F)F)c2Cl)-n2nc(N3CCCC3=O)nc21 [Example 13, 1-[(7S)-11-chloro-9-(2,6-difluorophenyl)-7-methyl-12-(trifluoromethyl)-2,3,5,8,13-pentazatricyclo[8.4.0.02,6]tetradeca-1(10),3,5,8,11,13-hexaen-4-yl]pyrrolidin-2-one] | 5.28 | 7.49 | 7.49 | 166 | 2.22 | 8.51
4 | C[C@H](O)CNC(=O)c1nc2n(n1)-c1cnc(C(F)(F)F)c(Cl)c1C(c1c(F)cccc1F)=N[C@H]2C [Example 14, (7S)-11-chloro-9-(2,6-difluorophenyl)-N-[(2S)-2-hydroxypropyl]-7-methyl-12-(trifluoromethyl)-2,3,5,8,13-pentazatricyclo[8.4.0.02,6]tetradeca-1(10),3,5,8,11,13-hexaene-4-carboxamide] | 5.06 | 7.34 | 7.41 | 190 | 2.28 | 8.43
5 | C[C@@H]1N=C(c2c(F)cccc2F)c2c(cnc(C(F)(F)F)c2Cl)-n2nc(C(=O)NCCO)nc21 [Example 15, (7S)-11-chloro-9-(2,6-difluorophenyl)-N-(2-hydroxyethyl)-7-methyl-12-(trifluoromethyl)-2,3,5,8,13-pentazatricyclo[8.4.0.02,6]tetradeca-1(10),3,5,8,11,13-hexaene-4-carboxamide] | 5.02 | 7.46 | 7.44 | 275 | 2.44 | 8.59
6 | C[C@@H]1N=C(c2c(F)cccc2F)c2c(cnc(C(F)(F)F)c2Cl)-n2nc(C(=O)NC[C@@H](C)O)nc21 [Example 16, (7S)-11-chloro-9-(2,6-difluorophenyl)-N-[(2R)-2-hydroxypropyl]-7-methyl-12-(trifluoromethyl)-2,3,5,8,13-pentazatricyclo[8.4.0.02,6]tetradeca-1(10),3,5,8,11,13-hexaene-4-carboxamide] | 5.02 | 7.40 | 7.45 | 238 | 2.38 | 8.39
7 | Cc1nnc2n1-c1cnc(C(F)(F)F)c(Cl)c1C(c1c(F)cccc1Cl)=N[C@H]2C [Example 17, (7S)-11-chloro-9-(2-chloro-6-fluoro-phenyl)-3,7-dimethyl-12-(trifluoromethyl)-2,4,5,8,13-pentazatricyclo[8.4.0.02,6]tetradeca-1(10),3,5,8,11,13-hexaene] | 5.31 | 7.65 | 7.68 | 215 | 2.33 | 8.42
8 | C[C@@H]1N=C(c2c(F)cccc2F)c2c(cnc(C(F)(F)F)c2Cl)-n2cc(C(=O)NCCO)nc21 [Example 19, (7S)-11-chloro-9-(2,6-difluorophenyl)-N-(2-hydroxyethyl)-7-methyl-12-(trifluoromethyl)-2,5,8,13-tetrazatricyclo[8.4.0.02,6]tetradeca-1(10),3,5,8,11,13-hexaene-4-carboxamide] | 5.29 | 7.67 | 7.63 | 241 | 2.38 | 8.42
9 | C[C@@H]1N=C(c2c(F)cccc2F)c2c(cnc(C(F)(F)F)c2Cl)-n2c1nc1c2CCC1 [Example 20, (10S)-6-chloro-8-(2,6-difluorophenyl)-10-methyl-5-(trifluoromethyl)-1,4,9,12-tetrazatetracyclo[9.6.0.02,7.013,17]heptadeca-2(7),3,5,8,11,13(17)-hexaene] | 5.96 | 7.93 | 7.82 | 92 | 1.96 | 8.31
10 | C[C@@H]1N=C(c2c(F)cccc2F)c2c(cnc(C(F)(F)F)c2Cl)-n2nc(C(=O)NCC(C)(C)O)nc21 [Example 21, (7S)-11-chloro-9-(2,6-difluorophenyl)-N-(2-hydroxy-2-methyl-propyl)-7-methyl-12-(trifluoromethyl)-2,3,5,8,13-pentazatricyclo[8.4.0.02,6]tetradeca-1(10),3,5,8,11,13-hexaene-4-carboxamide] | 4.95 | 7.14 | 7.14 | 156 | 2.19 | 7.97
